Experimental data reported in the SangsterLogP compilation.

First: COC(=O)C(F)(F)F
Second: COC(=O)CC#N
The logP of the first is higher: 0.6 for the first, -0.47 for the second.

Going from NNP(=O)(Oc1ccccc1)Oc1ccccc1 to O=C(OCCc1ccccc1)c1ccccc1, the logP rises from 1.51 to 4.01.

First: Cc1ccc(/N=C/N(C)/C=N/c2ccc(C)cc2C)c(C)c1
Second: Cc1ccc(-c2noc(C)n2)cc1
The logP of the first is higher: 5.5 for the first, 2.74 for the second.

Compared with OCCCF, OCCCO is lower in logP: -0.28 for the first, -1.04 for the second.

Going from Nc1nc(=O)cc[nH]1 to Cn1c(N)nc2ccccc21, the logP rises from -0.99 to 0.95.

Going from Nc1ccc(Cl)c([N+](=O)[O-])c1 to CS(=O)(=O)N(c1ccccc1[N+](=O)[O-])S(C)(=O)=O, the logP falls from 2.06 to 0.81.

O=C(O)Cc1ccc(N2Cc3ccccc3C2=O)cc1 and C[C@H](C(=O)O)c1ccc(N2Cc3ccccc3C2=O)cc1 are within 0.2 log units of each other in logP: 2.9 for the first, 2.89 for the second.

Going from CCCCOCN(C(=O)CCl)c1c(CC)cccc1CC to CN(C)C(=O)SCCCCOc1ccccc1, the logP falls from 4.5 to 3.28.

Going from CC(C)c1ccc(O)cc1 to CC(C)C(C#N)Cc1ccc(Cl)cc1 (stereo not given), the logP rises from 2.9 to 3.41.

Going from CCON=C(OC(=O)c1ccccc1)c1c(OC)ccc(Cl)c1OC to CNC(=O)c1ccccc1C(=O)c1ccccc1, the logP falls from 2.4 to 2.09.

CCOc1cccnc1 and CN(C)c1cccnc1 are within 0.2 log units of each other in logP: 1.44 for the first, 1.41 for the second.

Compared with N#Cc1cccc(F)c1, N#Cc1cccc(C=O)c1 is lower in logP: 1.47 for the first, 1.18 for the second.

First: Nc1ccn(C2CC(CO)C(O)C2O)c(=O)n1 (stereo not given)
Second: CC(=O)N=c1[nH]c(=O)ccn1C1OC(COC(C)=O)C(OC(C)=O)C1OC(C)=O (stereo not given)
The logP of the first is lower: -2.41 for the first, -0.16 for the second.

First: CNC(=N[N+](=O)[O-])NCCSCc1nc[nH]c1C
Second: O=C(NCCCO)C(F)(F)Cn1ccnc1[N+](=O)[O-]
The logP of the first is higher: 0.13 for the first, -0.64 for the second.

Compared with S=C(N/N=C/c1ccco1)Nc1ccccc1, c1ccc(CCCc2ccccc2)cc1 is higher in logP: 3.13 for the first, 3.43 for the second.

Compared with CN(C)c1ccc2c(c1)C(=O)N(S(C)(=O)=O)C2=O, Cc1ccc(N(SC(F)(Cl)Cl)S(=O)(=O)N(C)C)cc1 is higher in logP: 1.65 for the first, 3.95 for the second.

Compared with CCC12CCN(C)C(Cc3ccc(O)cc31)C2C (stereo not given), COC(=O)Nc1c(C)cccc1C is higher in logP: -1.14 for the first, 1.69 for the second.

Going from CNC1=CC(=O)C(NC)=CC1=O to O=C1C=C(NCCO)C(=O)c2ccccc21, the logP rises from 0.34 to 1.23.

Going from Clc1cc(Cl)c2c(Cl)ccc(Cl)c2c1 to Clc1nc(Cl)nc(Nc2ccccc2Cl)n1, the logP falls from 5.76 to 3.

Compared with N#Cc1sc2c(=O)c3ccccc3c(=O)c=2sc1C#N, O=C1CC(Sc2nc3ccccc3s2)N1 (stereo not given) is lower in logP: 2.84 for the first, 2.3 for the second.

First: COc1ccc(CC#N)cc1
Second: CN(C)c1ccc(C#N)cc1
The logP of the first is lower: 1.7 for the first, 2.2 for the second.

Compared with Cc1ccc(O)c(-n2nc3ccccc3n2)c1, CN(C(=O)COc1nc2ccccc2s1)c1ccccc1 is lower in logP: 4.31 for the first, 3.23 for the second.

Compared with O=[N+]([O-])c1cccc(SSc2cccc([N+](=O)[O-])c2)c1, O=[N+]([O-])c1ccccc1SSc1ccccc1[N+](=O)[O-] is lower in logP: 4.06 for the first, 3.37 for the second.

Going from CC(C)(C)C(=O)c1ccccc1 to CC(C)(NC(=O)C(Br)C(C)(C)C)c1ccccc1 (stereo not given), the logP rises from 3 to 3.46.

Compared with O=C1C=C(N2CCCC2)C(=O)C=C1N1CCCC1, O=C1C=C(N2CC2)C(=O)C=C1N1CC1 is lower in logP: 1.97 for the first, 0.18 for the second.

Compared with CCCSP(=S)(OCC)Oc1ccc(Cl)cc1Cl (stereo not given), CC(C)(C)C(O)(CCc1ccc(Cl)cc1)Cn1cncn1 (stereo not given) is lower in logP: 4.92 for the first, 3.7 for the second.

O=C(O)Cn1ccnc1[N+](=O)[O-] and CC(O)CNC(=O)C(F)(F)Cn1cnc([N+](=O)[O-])n1 (stereo not given) are within 0.2 log units of each other in logP: -0.34 for the first, -0.48 for the second.

Going from CC(C)I to CCC(C)Cl (stereo not given), the logP falls from 2.89 to 2.33.

Going from CC(C)=NOCCOC(=O)[C@@H](C)Oc1ccc(Oc2cnc3cc(Cl)ccc3n2)cc1 to O=C1CC(c2ccc(C(F)(F)F)cc2)Cc2c1c(=O)c1cc(Cl)ccc1n2O (stereo not given), the logP falls from 4.6 to 3.46.

First: CC1CN1C1=CC(=O)C(N2CC2C)=CC1=O (stereo not given)
Second: CC1CN1C1=C(F)C(=O)C(N2CC2C)=C(F)C1=O (stereo not given)
The logP of the first is lower: 1.07 for the first, 1.61 for the second.

Compared with C1=C\C=C/C=C\C=C/1, O=S(=O)(CCl)c1ccccc1 is lower in logP: 3.08 for the first, 1.24 for the second.

Going from C=CCn1cccn1 to CCNC(=O)c1ccoc1, the logP rises from 0.35 to 0.72.

Going from CCCN(CCC)c1c([N+](=O)[O-])cc(S(N)(=O)=O)cc1[N+](=O)[O-] to COCCOc1ccccc1OCCOC, the logP falls from 3.73 to 1.12.

First: COC(=O)C(=O)OC
Second: COC(=O)CCCCC(=O)OC
The logP of the first is lower: -0.17 for the first, 1.03 for the second.

First: CC1C=CCN1 (stereo not given)
Second: Cc1cc(C)[nH]n1
The logP of the first is higher: 1.87 for the first, 1.01 for the second.

Compared with CC1(C)CCC(C)(C)O1, CC(C)(C)Cl is lower in logP: 2.06 for the first, 1.82 for the second.

COC(=O)Nc1c(C(C)C)cccc1C(C)C and CC(C)CN(C)CC(C)C are within 0.2 log units of each other in logP: 2.2 for the first, 2.34 for the second.

Compared with Ic1ccc(I)cc1, FC(F)(F)c1cccc(C(F)(F)F)c1 is lower in logP: 4.11 for the first, 3.83 for the second.

Going from CCCCNc1ccc(C(=O)OCCOCCOCCOCCOCCOCCOCCOCCOCCOC)cc1 to CC(=O)Nc1ncnc2c1ncn2C, the logP falls from 2.45 to -0.41.

Going from N#Cc1ccncc1C#N to OCCCCl, the logP rises from 0.24 to 0.5.
